Experimental data reported in PubChem BioAssay AID330 (DTP/NCI, 2004).
Where “and” joins values, the source holds several entries; their conditions need not be identical. Identical values can stand only once. Toxic doses and inconclusive results are not listed.

Test system: P388 leukemia ip, CD2F1 mice, survival T/C
Experiment: NCI In Vivo Anticancer Drug Screen. Data for tumor model P388 Leukemia (intraperitoneal) in CD2F1 (CDF1) mice
Conditions: endpoint: median survival time, higher = longer survival
Procedure, shortened: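 Mice carrying the transplanted tumor received test compound or vehicle. Survival was recorded in each group, and the value is the treated-group measurement divided by that of the vehicle-treated control group.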

[1] = dose: 100.0 mg/kg/injection, schedule: Q04DX003 (ip), vehicle: saline with Tween-80
[2] = dose: 200.0 mg/kg/injection, schedule: Q04DX003 (ip), vehicle: saline with Tween-80
[3] = dose: 50.0 mg/kg/injection, schedule: Q01DX009 (ip), vehicle: saline
[4] = dose: 100.0 mg/kg/injection, schedule: Q01DX009 (ip), vehicle: saline
[5] = dose: 200.0 mg/kg/injection, schedule: Q01DX009 (ip), vehicle: saline
[6] = dose: 50.0 mg/kg/injection, schedule: Q01DX005 (ip), vehicle: Klucel (hydroxypropylcellulose) (HPC)
[7] = dose: 100.0 mg/kg/injection, schedule: Q01DX005 (ip), vehicle: Klucel (hydroxypropylcellulose) (HPC)
[8] = dose: 200.0 mg/kg/injection, schedule: Q01DX005 (ip), vehicle: Klucel (hydroxypropylcellulose) (HPC)
[9] = dose: 12.5 mg/kg/injection, schedule: Q01DX009 (ip), vehicle: Klucel (hydroxypropylcellulose) (HPC)
[10] = dose: 25.0 mg/kg/injection, schedule: Q01DX009 (ip), vehicle: Klucel (hydroxypropylcellulose) (HPC)
[11] = dose: 50.0 mg/kg/injection, schedule: Q01DX009 (ip), vehicle: Klucel (hydroxypropylcellulose) (HPC)
[12] = dose: 12.5 mg/kg/injection, schedule: Q01DX009 (ip), vehicle: saline
[13] = dose: 25.0 mg/kg/injection, schedule: Q01DX009 (ip), vehicle: saline
[14] = dose: 50.0 mg/kg/injection, schedule: Q01DX009 (ip), vehicle: saline with Tween-80

For `CCN(CC)Cc1cc(C)c(O)c(N=Nc2cc(OC)c(N=Nc3ccc([N+](=O)[O-])cc3)cc2OC)c1C`, the T/C [1] was 91 % of control, the T/C [2] was 94 % of control and the T/C (dose: 400.0 mg/kg/injection, schedule: Q04DX003 (ip), vehicle: saline with Tween-80) was 94 % of control.

`CC(=O)Oc1cc2nc3ccccc3nc2cc1N(C)C` was tested, and the T/C [3] was 99 % of control, the T/C [4] was 90 % of control and the T/C [5] was 100 % of control.

`NC1(N)ON(c2ccc(C=O)cc2)C(c2ccc([N+](=O)[O-])cc2)S1` (stereo not drawn) was tested, and the T/C [6] was 89 % of control, the T/C [7] was 95 % of control and the T/C [8] was 89 % of control.

For `Cc1ccc(C)c(NC(=O)C(=O)C(C#N)c2c(Cl)cccc2Cl)c1` (stereo not drawn), the T/C (dose: 60.0 mg/kg/injection, schedule: Q01DX005 (ip), vehicle: saline with Tween-80) was 96 % of control, the T/C (dose: 120.0 mg/kg/injection, schedule: Q01DX005 (ip), vehicle: saline with Tween-80) was 102 % of control and the T/C (dose: 240.0 mg/kg/injection, schedule: Q01DX005 (ip), vehicle: saline with Tween-80) was 99 % of control.

For `OC(CC1(O)C(F)(F)C(F)(F)C1(F)F)c1ccccc1` (stereo not drawn), the T/C [1] was 100 % of control and the T/C [2] was 90 % of control.

For `CN(C)c1nc(N(C)C)oc(=[N+](C)C)n1`, the T/C (dose: 6.25 mg/kg/injection, schedule: Q01DX005 (ip), vehicle: saline) was 106 % of control, the T/C (dose: 12.5 mg/kg/injection, schedule: Q01DX005 (ip), vehicle: saline) was 103 % of control and the T/C (dose: 25.0 mg/kg/injection, schedule: Q01DX005 (ip), vehicle: saline) was 113 % of control.

For `Cc1ccc(C(=O)N/N=C/C(=O)O)cc1`, the T/C [9] was 94 % of control, the T/C [10] was 95 % of control and the T/C [11] was 94 % of control. For the same compound, the T/C (dose: 100.0 mg/kg/injection, schedule: Q01DX009 (ip), vehicle: Klucel (hydroxypropylcellulose) (HPC)) was 88 % of control and the T/C (dose: 200.0 mg/kg/injection, schedule: Q01DX009 (ip), vehicle: Klucel (hydroxypropylcellulose) (HPC)) was 88 % of control.

`O=NN(C(=O)NCCN1CCOCC1)C1CCCCC1` was tested, and the T/C (dose: 25.0 mg/kg/injection, schedule: Q01DX001 (ip), vehicle: water) was 115 % of control, the T/C (dose: 50.0 mg/kg/injection, schedule: Q01DX001 (ip), vehicle: water) was 100 % of control and the T/C (dose: 100.0 mg/kg/injection, schedule: Q01DX001 (ip), vehicle: water) was 103 % of control. For the same compound, the T/C (dose: 200.0 mg/kg/injection, schedule: Q01DX001 (ip), vehicle: water) was 111 % of control and the T/C (dose: 400.0 mg/kg/injection, schedule: Q01DX001 (ip), vehicle: water) was 117 % of control.

With `COc1ccc(C=C2C(=O)C=CC2=O)cc1` the T/C (dose: 1.25 mg/kg/injection, schedule: Q04DX002 (ip), vehicle: saline with Tween-80) was 106 % of control, the T/C (dose: 2.5 mg/kg/injection, schedule: Q04DX002 (ip), vehicle: saline with Tween-80) was 97 % of control and the T/C (dose: 5.0 mg/kg/injection, schedule: Q04DX002 (ip), vehicle: saline with Tween-80) was 99 % of control.

With `C[n+]1ccccc1C#N` the T/C [12] was 109 % of control, the T/C [13] was 104 % of control and the T/C [3] was 104 % of control.

`O=C(O)c1cn(C2CCCCC2)c(=O)[nH]c1=O` was tested, and the T/C (dose: 50.0 mg/kg/injection, schedule: Q01DX005 (ip), vehicle: saline with Tween-80) was 99 % of control, the T/C (dose: 100.0 mg/kg/injection, schedule: Q01DX005 (ip), vehicle: saline with Tween-80) was 92 % of control and the T/C (dose: 200.0 mg/kg/injection, schedule: Q01DX005 (ip), vehicle: saline with Tween-80) was 92 % of control.

For `ClC1CC[N-]CC1.ClC1CC[N-]CC1.[Cl][Pt+2]([Cl])([Cl])[Cl]`, the T/C (dose: 1.56 mg/kg/injection, schedule: Q01DX009 (ip), vehicle: saline) was 100 % of control, the T/C (dose: 3.13 mg/kg/injection, schedule: Q01DX009 (ip), vehicle: saline) was 108 % of control and the T/C (dose: 6.25 mg/kg/injection, schedule: Q01DX009 (ip), vehicle: Klucel (hydroxypropylcellulose) (HPC)) was 166 % of control. The T/C [9] was 192 % of control, the T/C [12] was 153 % of control and the T/C [10] was 245 % of control. The T/C [13] was 172 % of control and the T/C [11] was 113 % of control.

In the case of `O=C1C(n2ccc(=O)[nH]c2=O)CCN1CCCl` (stereo not drawn), the T/C [7] is reported as 108 % of control and the T/C [8] is reported as 108 % of control.

For `O=C(Nc1ccc(N=C=S)cc1)c1cc(Br)cc(Br)c1O`, the T/C (dose: 50.0 mg/kg/injection, schedule: Q01DX001 (ip), vehicle: Klucel (hydroxypropylcellulose) (HPC)) was 101 % of control and the T/C (dose: 100.0 mg/kg/injection, schedule: Q01DX001 (ip), vehicle: Klucel (hydroxypropylcellulose) (HPC)) was 99 % of control.

For `O=S(=O)(NC(=S)S)c1ccccc1`, the T/C (dose: 12.5 mg/kg/injection, schedule: Q01DX009 (ip), vehicle: water) was 102 % of control and 88 % of control and 94 % of control, the T/C (dose: 25.0 mg/kg/injection, schedule: Q01DX009 (ip), vehicle: water) was 104 % of control and 107 % of control and 94 % of control and the T/C (dose: 50.0 mg/kg/injection, schedule: Q01DX009 (ip), vehicle: water) was 102 % of control and 106 % of control and 116 % of control. For the same compound, the T/C (dose: 100.0 mg/kg/injection, schedule: Q01DX009 (ip), vehicle: water) was 112 % of control (2×) and 123 % of control.

For `C/C(N)=N\O`, the T/C [3] was 94 % of control, the T/C [4] was 114 % of control and the T/C [5] was 104 % of control.

With `CC1(O)C(c2ccccc2)=C(c2ccccc2)C2(c3ccccc3)Oc3c(Cl)c(Cl)c(Cl)c(Cl)c3OC12c1ccccc1` (stereo not drawn) the T/C (dose: 12.5 mg/kg/injection, schedule: Q01DX009 (ip), vehicle: saline with Tween-80) was 94 % of control, the T/C (dose: 25.0 mg/kg/injection, schedule: Q01DX009 (ip), vehicle: saline with Tween-80) was 94 % of control and the T/C [14] was 90 % of control and 93 % of control.

In the case of `C=Cn1c([N+](=O)[O-])cnc1/C=C/c1ccc(C(=O)NC(C)CC)cc1` (stereo not drawn), the T/C (dose: 100.0 mg/kg/injection, schedule: Q04DX002 (ip), vehicle: gum acacia) is reported as 93 % of control, the T/C (dose: 200.0 mg/kg/injection, schedule: Q04DX002 (ip), vehicle: gum acacia) is reported as 91 % of control and the T/C (dose: 400.0 mg/kg/injection, schedule: Q04DX002 (ip), vehicle: gum acacia) is reported as 96 % of control.

In the case of `CCOC(=O)c1cc(N)c(C(=O)OCC)cc1N`, the T/C [14] is reported as 97 % of control, the T/C (dose: 100.0 mg/kg/injection, schedule: Q01DX009 (ip), vehicle: saline with Tween-80) is reported as 86 % of control and 96 % of control and the T/C (dose: 200.0 mg/kg/injection, schedule: Q01DX009 (ip), vehicle: saline with Tween-80) is reported as 96 % of control and 97 % of control. For the same compound, the T/C (dose: 400.0 mg/kg/injection, schedule: Q01DX009 (ip), vehicle: saline with Tween-80) was 92 % of control and 96 % of control.

With `CC(=NCCCCN=C(C)c1cc(C)ccc1O)c1cc(C)ccc1O` the T/C [6] was 98 % of control, the T/C [7] was 100 % of control and the T/C [8] was 103 % of control.

For `CCCCCC1OC1CC1OC1CCCCCCCC(=O)OC` (stereo not drawn), the T/C [6] was 96 % of control, the T/C [7] was 96 % of control and the T/C [8] was 104 % of control.

For `COc1cc(C2(C3CC(=O)OC3COC(c3ccccc3)(c3ccccc3)c3ccccc3)SCCCS2)cc(OC)c1OC` (stereo not drawn), the T/C (dose: 100.0 mg/kg/injection, schedule: Q04DX002 (ip), vehicle: saline with Tween-80) was 88 % of control.

For `CC1C(n2[nH]c(=O)n(C)c2=O)c2ccccc2-n2c(=O)n(C)c(=O)n21` (stereo not drawn), the T/C [6] was 96 % of control, the T/C [7] was 101 % of control and the T/C [8] was 103 % of control.

`COc1ccc(CSC(=S)Nc2ccccc2C(F)(F)F)cc1` was tested, and the T/C (dose: 50.0 mg/kg/injection, schedule: Q01DX009 (ip), vehicle: suspension in saline) was 93 % of control, the T/C (dose: 100.0 mg/kg/injection, schedule: Q01DX009 (ip), vehicle: suspension in saline) was 91 % of control and the T/C (dose: 200.0 mg/kg/injection, schedule: Q01DX009 (ip), vehicle: suspension in saline) was 92 % of control.

For `COc1nc(NC2OC(CO)C(O)C(O)C2O)c(/C=N/O)c(=O)n1C` (stereo not drawn), the T/C (dose: 60.0 mg/kg/injection, schedule: Q01DX005 (ip), vehicle: saline) was 99 % of control, the T/C (dose: 120.0 mg/kg/injection, schedule: Q01DX005 (ip), vehicle: saline) was 103 % of control and the T/C (dose: 240.0 mg/kg/injection, schedule: Q01DX005 (ip), vehicle: saline) was 99 % of control.

In the case of `C/C(=N/NC(=S)N1CCCCCC1)c1ncccn1`, the T/C (dose: 6.25 mg/kg/injection, schedule: Q01DX005 (ip), vehicle: saline with Tween-80) is reported as 104 % of control and the T/C (dose: 12.5 mg/kg/injection, schedule: Q01DX005 (ip), vehicle: saline with Tween-80) is reported as 115 % of control.
